Measurements from PMC5428509, “Irreversible inhibition of BTK kinase by a novel highly selective inhibitor CHMFL-BTK-11 suppresses inflammatory response in rheumatoid arthritis model” (Scientific Reports, 2017).

Columns and labels:
Assay in all cases: biochemical
Set-up in all cases: KinomeScan competition binding panel (DiscoveRx), percent of control at 1 uM
Details in all cases: read-out: Percent Control
BLK = BLK (Homo sapiens, UniProt P51451)
Procedure, shortened: (§1)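 Selectivity profiled across 456 kinases/mutants by KinomeScan binding technology.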

SGK3 = SGK3 (Homo sapiens, UniProt Q96BR1)
Procedure, shortened: as §1

ERBB4 = ERBB4 (Homo sapiens, UniProt Q15303)
Sequence of ERBB4 (Q15303 whole entry): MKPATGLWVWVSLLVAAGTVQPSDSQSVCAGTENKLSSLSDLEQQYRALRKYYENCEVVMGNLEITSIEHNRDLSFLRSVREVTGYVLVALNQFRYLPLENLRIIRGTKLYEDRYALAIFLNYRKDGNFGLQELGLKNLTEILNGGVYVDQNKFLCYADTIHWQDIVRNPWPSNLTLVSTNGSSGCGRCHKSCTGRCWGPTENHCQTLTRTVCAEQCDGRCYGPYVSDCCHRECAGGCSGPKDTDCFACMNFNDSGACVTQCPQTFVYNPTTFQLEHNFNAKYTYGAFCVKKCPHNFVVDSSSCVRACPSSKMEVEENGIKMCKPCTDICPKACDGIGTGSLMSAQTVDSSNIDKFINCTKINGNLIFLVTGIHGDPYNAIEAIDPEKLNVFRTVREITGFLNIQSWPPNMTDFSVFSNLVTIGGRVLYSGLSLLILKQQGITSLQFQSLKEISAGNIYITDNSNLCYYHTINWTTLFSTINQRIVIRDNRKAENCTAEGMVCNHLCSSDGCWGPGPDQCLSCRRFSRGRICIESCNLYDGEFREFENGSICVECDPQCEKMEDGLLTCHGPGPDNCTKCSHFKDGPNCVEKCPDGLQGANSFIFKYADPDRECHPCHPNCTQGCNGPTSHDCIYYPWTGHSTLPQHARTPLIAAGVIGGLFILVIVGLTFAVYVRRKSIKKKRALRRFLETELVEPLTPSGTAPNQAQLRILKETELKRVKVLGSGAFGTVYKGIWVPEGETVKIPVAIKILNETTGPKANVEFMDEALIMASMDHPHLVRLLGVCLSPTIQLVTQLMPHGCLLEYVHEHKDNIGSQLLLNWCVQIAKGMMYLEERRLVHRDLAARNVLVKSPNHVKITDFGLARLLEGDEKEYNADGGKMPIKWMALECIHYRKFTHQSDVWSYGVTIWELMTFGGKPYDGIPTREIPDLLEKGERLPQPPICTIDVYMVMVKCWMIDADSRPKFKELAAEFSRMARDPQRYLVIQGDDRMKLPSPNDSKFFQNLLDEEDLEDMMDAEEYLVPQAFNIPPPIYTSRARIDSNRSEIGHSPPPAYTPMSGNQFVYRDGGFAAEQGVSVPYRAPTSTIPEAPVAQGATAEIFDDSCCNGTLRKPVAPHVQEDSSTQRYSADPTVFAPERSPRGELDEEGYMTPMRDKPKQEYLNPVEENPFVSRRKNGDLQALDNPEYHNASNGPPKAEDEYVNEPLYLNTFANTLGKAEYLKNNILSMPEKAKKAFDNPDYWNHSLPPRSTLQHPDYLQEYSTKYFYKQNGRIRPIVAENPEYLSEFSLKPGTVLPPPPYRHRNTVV
Procedure, shortened: as §1

ACVR1 = ACVR1 (Homo sapiens, UniProt Q04771)
Procedure, shortened: as §1

MLCK = target: T1, MLCK (Homo sapiens, UniProt Q32MK0)
T1 construct: gene MYLK3
Procedure, shortened: as §1

MET = MET (Homo sapiens, UniProt P08581)
Procedure, shortened: as §1

PRKCD = PRKCD (Homo sapiens, UniProt Q05655)
Procedure, shortened: as §1

CDK8 = CDK8 (Homo sapiens, UniProt P49336)
Procedure, shortened: as §1

CDC2L5 = target: T2, CDC2L5 (Homo sapiens, UniProt Q14004)
T2 construct: gene CDK13
T2 sequence (Q14004 whole entry): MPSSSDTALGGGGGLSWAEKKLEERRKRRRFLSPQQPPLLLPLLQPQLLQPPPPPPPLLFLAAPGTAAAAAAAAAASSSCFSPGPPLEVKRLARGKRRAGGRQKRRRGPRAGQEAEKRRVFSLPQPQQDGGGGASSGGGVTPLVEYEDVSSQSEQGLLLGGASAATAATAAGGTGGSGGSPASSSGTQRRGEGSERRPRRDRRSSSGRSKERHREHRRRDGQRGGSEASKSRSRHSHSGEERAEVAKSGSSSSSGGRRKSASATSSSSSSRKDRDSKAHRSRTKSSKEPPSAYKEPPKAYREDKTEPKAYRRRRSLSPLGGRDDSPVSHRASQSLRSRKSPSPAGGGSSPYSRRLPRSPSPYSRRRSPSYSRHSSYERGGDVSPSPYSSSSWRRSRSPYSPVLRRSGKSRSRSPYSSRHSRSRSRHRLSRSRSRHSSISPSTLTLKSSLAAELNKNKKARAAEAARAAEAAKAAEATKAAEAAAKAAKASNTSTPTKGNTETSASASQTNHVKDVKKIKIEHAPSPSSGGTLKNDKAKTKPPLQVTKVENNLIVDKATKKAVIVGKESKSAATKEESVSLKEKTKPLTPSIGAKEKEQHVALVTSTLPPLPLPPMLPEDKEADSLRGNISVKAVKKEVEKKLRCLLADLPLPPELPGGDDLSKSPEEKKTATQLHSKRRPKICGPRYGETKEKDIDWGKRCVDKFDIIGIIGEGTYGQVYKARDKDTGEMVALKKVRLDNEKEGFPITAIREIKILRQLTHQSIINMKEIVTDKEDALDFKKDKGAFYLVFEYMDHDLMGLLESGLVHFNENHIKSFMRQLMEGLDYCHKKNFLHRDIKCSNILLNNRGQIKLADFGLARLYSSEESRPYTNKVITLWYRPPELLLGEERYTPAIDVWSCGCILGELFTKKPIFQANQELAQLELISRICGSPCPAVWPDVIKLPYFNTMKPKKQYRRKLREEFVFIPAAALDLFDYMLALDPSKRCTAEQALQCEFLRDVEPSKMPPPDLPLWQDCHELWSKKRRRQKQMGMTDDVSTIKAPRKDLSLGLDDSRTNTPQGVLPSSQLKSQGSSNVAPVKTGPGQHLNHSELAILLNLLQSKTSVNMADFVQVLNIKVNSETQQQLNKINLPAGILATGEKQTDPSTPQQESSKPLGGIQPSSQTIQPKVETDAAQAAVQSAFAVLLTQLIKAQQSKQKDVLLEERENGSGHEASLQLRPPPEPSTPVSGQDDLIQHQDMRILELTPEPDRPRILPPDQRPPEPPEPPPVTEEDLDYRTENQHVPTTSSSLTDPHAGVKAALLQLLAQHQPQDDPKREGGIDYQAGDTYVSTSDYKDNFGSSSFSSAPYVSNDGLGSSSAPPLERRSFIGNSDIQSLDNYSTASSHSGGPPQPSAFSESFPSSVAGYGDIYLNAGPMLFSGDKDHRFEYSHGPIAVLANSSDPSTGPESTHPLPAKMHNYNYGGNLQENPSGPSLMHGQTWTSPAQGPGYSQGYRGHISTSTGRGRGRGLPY
Procedure, shortened: as §1

PKMYT1 = PKMYT1 (Homo sapiens, UniProt Q99640)
Procedure, shortened: as §1

EPHA5 = EPHA5 (Homo sapiens, UniProt P54756)
Procedure, shortened: as §1

MST2 = target: T3, MST2 (Homo sapiens, UniProt Q13188)
T3 construct: gene STK3
Procedure, shortened: as §1

CSNK1E = CSNK1E (Homo sapiens, UniProt P49674)
Sequence of CSNK1E (P49674 whole entry): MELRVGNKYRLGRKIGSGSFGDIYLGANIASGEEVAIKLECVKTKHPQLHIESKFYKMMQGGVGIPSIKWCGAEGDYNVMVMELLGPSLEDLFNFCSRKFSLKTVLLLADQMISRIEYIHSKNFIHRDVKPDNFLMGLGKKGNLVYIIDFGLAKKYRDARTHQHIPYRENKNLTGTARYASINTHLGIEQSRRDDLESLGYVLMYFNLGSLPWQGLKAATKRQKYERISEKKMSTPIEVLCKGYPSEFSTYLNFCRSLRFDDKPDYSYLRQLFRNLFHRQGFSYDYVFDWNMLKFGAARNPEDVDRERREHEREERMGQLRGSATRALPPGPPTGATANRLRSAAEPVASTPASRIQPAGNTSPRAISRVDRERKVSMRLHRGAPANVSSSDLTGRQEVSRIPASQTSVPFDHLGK
Procedure, shortened: as §1

CDC2L2 = target: T4, CDC2L2 (Homo sapiens, UniProt Q9UQ88)
T4 construct: gene CDK11A
Procedure, shortened: as §1

FLT3-autoinhibited = FLT3-autoinhibited (Homo sapiens, UniProt P36888)
Procedure, shortened: as §1

CDK5 = CDK5 (Homo sapiens, UniProt Q00535)
Sequence of CDK5 (Q00535 whole entry): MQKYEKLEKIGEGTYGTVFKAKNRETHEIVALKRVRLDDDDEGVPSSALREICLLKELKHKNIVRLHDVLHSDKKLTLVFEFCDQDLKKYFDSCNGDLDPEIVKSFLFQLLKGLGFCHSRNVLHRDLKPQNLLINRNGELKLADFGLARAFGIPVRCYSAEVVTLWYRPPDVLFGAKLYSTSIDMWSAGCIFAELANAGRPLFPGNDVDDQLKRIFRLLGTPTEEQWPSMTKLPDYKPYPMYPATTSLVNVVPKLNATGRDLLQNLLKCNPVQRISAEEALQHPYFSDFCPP
Procedure, shortened: as §1

NEK5 = NEK5 (Homo sapiens, UniProt Q6P3R8)
Procedure, shortened: as §1

AURKA = AURKA (Homo sapiens, UniProt O14965)
Sequence of AURKA (O14965 whole entry): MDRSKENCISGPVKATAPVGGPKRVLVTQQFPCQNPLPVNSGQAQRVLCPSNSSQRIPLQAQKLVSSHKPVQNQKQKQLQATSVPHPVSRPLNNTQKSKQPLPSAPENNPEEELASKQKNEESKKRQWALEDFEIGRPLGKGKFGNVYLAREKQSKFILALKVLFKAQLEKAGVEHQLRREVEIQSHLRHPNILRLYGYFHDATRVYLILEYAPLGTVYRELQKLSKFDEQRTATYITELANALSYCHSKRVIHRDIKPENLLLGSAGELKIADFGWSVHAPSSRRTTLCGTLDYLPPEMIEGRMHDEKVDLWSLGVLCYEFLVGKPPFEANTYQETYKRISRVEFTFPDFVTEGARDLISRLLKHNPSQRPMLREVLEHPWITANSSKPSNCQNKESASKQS
Procedure, shortened: as §1

HCK = HCK (Homo sapiens, UniProt P08631)
Sequence of HCK (P08631 whole entry): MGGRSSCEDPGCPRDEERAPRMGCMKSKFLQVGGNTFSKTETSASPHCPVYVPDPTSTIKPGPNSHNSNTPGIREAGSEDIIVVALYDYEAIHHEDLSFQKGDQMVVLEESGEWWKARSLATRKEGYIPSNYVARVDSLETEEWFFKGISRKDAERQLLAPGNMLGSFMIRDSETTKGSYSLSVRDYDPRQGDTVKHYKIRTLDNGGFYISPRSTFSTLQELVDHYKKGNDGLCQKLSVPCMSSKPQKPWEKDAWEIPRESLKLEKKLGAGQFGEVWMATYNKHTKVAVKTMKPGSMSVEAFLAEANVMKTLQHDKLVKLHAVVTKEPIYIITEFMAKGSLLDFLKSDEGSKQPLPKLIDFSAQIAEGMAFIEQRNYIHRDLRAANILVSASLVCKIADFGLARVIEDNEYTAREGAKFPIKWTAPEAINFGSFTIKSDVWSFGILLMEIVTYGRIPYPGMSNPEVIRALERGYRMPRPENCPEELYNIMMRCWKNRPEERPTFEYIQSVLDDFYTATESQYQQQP
Procedure, shortened: as §1

PRKD1 = PRKD1 (Homo sapiens, UniProt Q15139)
Procedure, shortened: as §1

MAP3K15 = MAP3K15 (Homo sapiens, UniProt Q6ZN16)
Procedure, shortened: as §1

HUNK = HUNK (Homo sapiens, UniProt P57058)
Procedure, shortened: as §1

DAPK2 = DAPK2 (Homo sapiens, UniProt Q9UIK4)
Procedure, shortened: as §1

[1] = target: T5, RSK1(Kin.Dom.2-C-terminal) (Homo sapiens, UniProt Q15418)
T5 construct: gene RPS6KA1; Kin.Dom.2-C-terminal
Procedure, shortened: as §1

AMPK-alpha1 = target: T6, AMPK-alpha1 (Homo sapiens, UniProt Q13131)
T6 construct: gene PRKAA1
Procedure, shortened: as §1

Sequence of BLK (P51451 whole entry): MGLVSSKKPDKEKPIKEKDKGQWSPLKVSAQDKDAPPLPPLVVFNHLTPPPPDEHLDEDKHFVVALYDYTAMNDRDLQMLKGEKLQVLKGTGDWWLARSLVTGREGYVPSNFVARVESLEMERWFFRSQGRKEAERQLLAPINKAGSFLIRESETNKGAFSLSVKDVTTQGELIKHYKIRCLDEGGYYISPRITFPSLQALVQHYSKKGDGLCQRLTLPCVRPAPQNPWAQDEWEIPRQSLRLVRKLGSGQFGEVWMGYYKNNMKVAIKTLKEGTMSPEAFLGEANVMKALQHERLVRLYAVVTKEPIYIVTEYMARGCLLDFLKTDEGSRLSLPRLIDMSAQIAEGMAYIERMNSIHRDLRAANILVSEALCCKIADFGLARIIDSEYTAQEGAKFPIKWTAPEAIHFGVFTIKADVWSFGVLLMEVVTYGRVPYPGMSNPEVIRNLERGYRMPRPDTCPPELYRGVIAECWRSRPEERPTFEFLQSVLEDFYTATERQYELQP

C=CC(=O)Nc1cc(-n2c(=O)ccc3cnc4ccc(-n5cccn5)cc4c32)ccc1C [CHMFL-BTK-11]
remaining binding at 1 µM (BLK): 30% | remaining binding at 1 µM (SGK3): 86% | remaining binding at 1 µM (ERBB4): 91% | remaining binding at 1 µM (ACVR1): 100% | remaining binding at 1 µM (MLCK): 98% | remaining binding at 1 µM (MET): 100% | remaining binding at 1 µM (PRKCD): 86% | remaining binding at 1 µM (CDK8): 91% | remaining binding at 1 µM (CDC2L5): 98% | remaining binding at 1 µM (PKMYT1): 94% | remaining binding at 1 µM (EPHA5): 100% | remaining binding at 1 µM (MST2): 97% | remaining binding at 1 µM (CSNK1E): 100% | remaining binding at 1 µM (CDC2L2): 100% | remaining binding at 1 µM (FLT3-autoinhibited): 100% | remaining binding at 1 µM (CDK5): 100% | remaining binding at 1 µM (NEK5): 73% | remaining binding at 1 µM (AURKA): 71% | remaining binding at 1 µM (HCK): 100% | remaining binding at 1 µM (PRKD1): 94% | remaining binding at 1 µM (MAP3K15): 80% | remaining binding at 1 µM (HUNK): 86% | remaining binding at 1 µM (DAPK2): 100% | remaining binding at 1 µM [1]: 100% | remaining binding at 1 µM (AMPK-alpha1): 100%
